Measured values as given in patent US10323037B2, “Aminopyridazinone compounds as protein kinase inhibitors” (Jiangsu Hengrui Medicine Co., Ltd., priority 2014, dated 2019).

Tested on: TMD-8 cells
Test: Cell proliferation assay (CellTiter-Glo), TMD-8
Type: cell-based
Conditions: Homo sapiens, TMD8, 120 h; 5-day treatment; read-out: TMD8 cells growth IC50
Description: Cell proliferation assay: TMD-8 and SU-DHL-1 cells were maintained at 37° C. in a humidified atmosphere with 5% CO2 in the recommended medium and serum concentrations. For cell proliferation assay, cells were seeded in 96-well pates at a density of 5,000 to 10,000 cells per well and cultured overnight at 37° C. in recommended medium supplemented with 5-10% FBS. On the next day, the test articles at various concentrations or vehicle control (0.5% DMSO) were added into cell culture. After 5-day treatment, the growth of cells was assayed by the CellTiter-Glo® Luminestceaent Cell Viability Assay (Promega). IC50 values were calculated using GraphPad Prism by plotting the logarithm of the concentration versus percent inhibition of cell growth as compared with the vehicle control.

| SMILES | IC50 [nM] |
| --- | --- |
| C=CC(=O)N1CCC[C@@H](n2cc(-c3ccc(Oc4ccccc4)cc3)c3c(N)n[nH]c(=O)c32)C1 [Example 1, (R)-1-(1-acryloylpiperidin-3-yl)-4-amino-3-(4-phenoxyphenyl)-1H-pyrrolo[2,3-d]pyridazin-7(6H)-one] | ≤ 10 |
| C=CC(=O)N1CC[C@H](n2cc(-c3ccc(Oc4ccccc4)cc3)c3c(N)n[nH]c(=O)c32)C1 [Example 3, 4-amino-3-(4-phenoxyphenyl)-1-[(3S)-1-prop-2-enoylpyrrolidin-3-yl]-6H-pyrrolo[2,3-d]pyridazin-7-one] | 10 to 1000 |
| C=CC(=O)N1CC[C@@H](n2cc(-c3ccc(Oc4ccccc4)cc3)c3c(N)n[nH]c(=O)c32)C1 [Example 4, 4-amino-3-(4-phenoxyphenyl)-1-[(3R)-1-prop-2-enoylpyrrolidin-3-yl]-6H-pyrrolo[2,3-d]pyridazin-7-one] | 10 to 1000 |
| C=CC(=O)N1CC(n2cc(-c3ccc(Oc4ccccc4)cc3)c3c(N)n[nH]c(=O)c32)C1 [Example 5, 4-amino-3-(4-phenoxyphenyl)-1-(1-prop-2-enoylazetidin-3-yl)-6H-pyrrolo[2,3-d]pyridazin-7-one] | 10 to 1000 |
| C=CC(=O)N1CCC[C@H]1Cn1cc(-c2ccc(Oc3ccccc3)cc2)c2c(N)n[nH]c(=O)c21 [Example 6, 4-amino-3-(4-phenoxyphenyl)-1-[[(2S)-1-prop-2-enoylpyrrolidin-2-yl]methyl]-6H-pyrrolo[2,3-d]pyridazin-7-one] | ≤ 10 |
| C=CC(=O)N1CCC(Cn2cc(-c3ccc(Oc4ccccc4)cc3)c3c(N)n[nH]c(=O)c32)C1 (stereo not drawn) [Example 8, 4-amino-3-(4-phenoxyphenyl)-1-[(1-prop-2-enoylpyrrolidin-3-yl)methyl]-6H-pyrrolo[2,3-d]pyridazin-7-one] | 10 to 1000 |
| C=CC(=O)N1CCC(Cn2cc(-c3ccc(Oc4ccccc4)cc3)c3c(N)n[nH]c(=O)c32)CC1 [Example 10, 4-amino-3-(4-phenoxyphenyl)-1-[(1-prop-2-enoyl-4-piperidyl)methyl]-6H-pyrrolo[2,3-d]pyridazin-7-one] | 10 to 1000 |
| C=CC(=O)N1CC(Cn2cc(-c3ccc(Oc4ccccc4)cc3)c3c(N)n[nH]c(=O)c32)C1 [Example 12, 4-amino-3-(4-phenoxyphenyl)-1-[(1-prop-2-enoylazetidin-3-yl)methyl]-6H-pyrrolo[2,3-d]pyridazin-7-one] | ≤ 10 |
| C=CC(=O)N1CCC(F)C(n2cc(-c3ccc(Oc4ccccc4)cc3)c3c(N)n[nH]c(=O)c32)C1 (stereo not drawn) [Example 13, 1-(1-acryloyl-4-fluoropiperidin-3-yl)-4-amino-3-(4-phenoxyphenyl)-1H-pyrrolo[2,3-d]pyridazin-7(6H)-one] | ≤ 10 |
| C=CC(=O)N1C[C@H](n2cc(-c3ccc(Oc4ccccc4)cc3)c3c(N)n[nH]c(=O)c32)CC(F)(F)C1 [Example 14, (R)-1-(1-acryloyl-5,5-difluoropiperidin-3-yl)-4-amino-3-(4-phenoxyphenyl)-1H-pyrrolo[2,3-d]pyridazin-7(6H)-one] | ≤ 10 |
| C=CC(=O)NC1C2CCC1CC(n1cc(-c3ccc(Oc4ccccc4)cc3)c3c(N)n[nH]c(=O)c31)C2 (stereo not drawn) [Example 15, N-(3-(4-amino-7-oxo-3-(4-phenoxyphenyl)-6,7-dihydro-1H-pyrrolo[2,3-d]pyridazin-1-yl)bicyclo[3.2.1]octan-8-yl)acrylamide] | ≤ 10 |
| CC(C)N(C)C/C=C/C(=O)N1CCC[C@@H](n2cc(-c3ccc(Oc4ccccc4)cc3)c3c(N)n[nH]c(=O)c32)C1 [Example 16, 4-amino-1-[(3R)-1-[(E)-4-[isopropyl(methyl)amino]but-2-enoyl]-3-piperidyl]-3-(4-phenoxyphenyl)-6H-pyrrolo[2,3-d]pyridazin-7-one] | 10 to 1000 |
| CN(C/C=C/C(=O)N1CCC[C@@H](n2cc(-c3ccc(Oc4ccccc4)cc3)c3c(N)n[nH]c(=O)c32)C1)C(=O)OC(C)(C)C [Example 17] | 10 to 1000 |
| CNC/C=C/C(=O)N1CCC[C@@H](n2cc(-c3ccc(Oc4ccccc4)cc3)c3c(N)n[nH]c(=O)c32)C1 [Example 18, 4-amino-1-[(3R)-1-[(E)-4-(methylamino)but-2-enoyl]-3-piperidyl]-3-(4-phenoxyphenyl)-6H-pyrrolo[2,3-d]pyridazin-7-one] | ≤ 10 |
| CCC(=O)N1CCCC(n2cc(-c3ccc(Oc4ccccc4)cc3)c3c(N)n[nH]c(=O)c32)C1 (stereo not drawn) [Example 19, 4-amino-3-(4-phenoxyphenyl)-1-(1-propionylpiperidin-3-yl)-1H-pyrrolo[2,3-d]pyridazin-7(6H)-one] | 10 to 1000 |
| N#CN1CCC[C@@H](n2cc(-c3ccc(Oc4ccccc4)cc3)c3c(N)n[nH]c(=O)c32)C1 [Example 20, (R)-3-(4-amino-7-oxo-3-(4-phenoxyphenyl)-6,7-dihydro-1H-pyrrolo[2,3-d]pyridazin-1-yl)piperidine-1-carbonitrile] | ≤ 10 |
| Nc1n[nH]c(=O)c2c1c(-c1ccc(Oc3ccccc3)cc1)cn2[C@@H]1CCCN(C(=O)CCl)C1 [Example 22, 4-amino-1-[(3R)-1-(2-chloroacetyl)-3-piperidyl]-3-(4-phenoxyphenyl)-6H-pyrrolo[2,3-d]pyridazin-7-one] | 10 to 1000 |
| Nc1n[nH]c(=O)c2c1c(-c1ccc(Oc3ccccc3)cc1)cn2[C@@H]1CCCN(C(=O)C2CC2)C1 [Example 23, 4-amino-1-[(3R)-1-(cyclopropanecarbonyl)-3-piperidyl]-3-(4-phenoxyphenyl)-6H-pyrrolo[2,3-d]pyridazin-7-one] | 10 to 1000 |
| N#CCC(=O)N1CCC[C@@H](n2cc(-c3ccc(Oc4ccccc4)cc3)c3c(N)n[nH]c(=O)c32)C1 [Example 24, 3-[(3R)-3-[4-amino-7-oxo-3-(4-phenoxyphenyl)-6H-pyrrolo[2,3-d]pyridazin-1-yl]-1-piperidyl]-3-oxo-propanenitrile] | 10 to 1000 |
| C/C=C/C(=O)N1CCC[C@@H](n2cc(-c3ccc(Oc4ccccc4)cc3)c3c(N)n[nH]c(=O)c32)C1 [Example 25, 4-amino-1-[(3R)-1-[(E)-but-2-enoyl]-3-piperidyl]-3-(4-phenoxyphenyl)-6H-pyrrolo[2,3-d]pyridazin-7-one] | 10 to 1000 |
| CN(C)C/C=C/C(=O)N1CCC[C@@H](n2cc(-c3ccc(Oc4ccccc4)cc3)c3c(N)n[nH]c(=O)c32)C1 [Example 26, 4-amino-1-[(3R)-1-[(E)-4-(dimethylamino)but-2-enoyl]-3-piperidyl]-3-(4-phenoxyphenyl)-6H-pyrrolo[2,3-d]pyridazin-7-one] | ≤ 10 |
| CCN(CC)C/C=C/C(=O)N1CCC[C@@H](n2cc(-c3ccc(Oc4ccccc4)cc3)c3c(N)n[nH]c(=O)c32)C1 [Example 27, 4-amino-1-[(3R)-1-[(E)-4-(diethylamino)but-2-enoyl]-3-piperidyl]-3-(4-phenoxyphenyl)-6H-pyrrolo[2,3-d]pyridazin-7-one] | ≤ 10 |
| Nc1n[nH]c(=O)c2c1c(-c1ccc(Oc3ccccc3)cc1)cn2[C@@H]1CCCN(C(=O)/C=C/CNC2CC2)C1 [Example 28, 4-amino-1-[(3R)-1-[(E)-4-(cyclopropylamino)but-2-enoyl]-3-piperidyl]-3-(4-phenoxyphenyl)-6H-pyrrolo[2,3-d]pyridazin-7-one] | ≤ 10 |
| CN(C/C=C/C(=O)N1CCC[C@@H](n2cc(-c3ccc(Oc4ccccc4)cc3)c3c(N)n[nH]c(=O)c32)C1)C1CC1 [Example 29, 4-amino-1-[(3R)-1-[(E)-4-(cyclopropyl(methyl)amino)but-2-enoyl]-3-piperidyl]-3-(4-phenoxyphenyl)-6H-pyrrolo[2,3-d]pyridazin-7-one] | ≤ 10 |
